Experimental data published in paper PMC12794188, “Maternal–Fetal Transfer and Toxicokinetics of 2,2′,5,5′-Tetrachlorobiphenyl, [^14C]-PCB52, Following Intratracheal Administration” (Chemical Research in Toxicology, 2025).

Experiment: Toxicokinetics and tissue disposition of total [14C] radioactivity after a single intratracheal dose of [14C]-PCB52 (0.157 mg/kg) in pregnant rats at GD 11±1
Assay type: in vivo, Sprague–Dawley rats
Experimental: Female Sprague–Dawley rats (8 weeks old) weighing 237–269.7 g (mean = 247.5 g) (Envigo RMS, LLC, Indianapolis, IN) were used for this study. All animal experiments were performed following the protocols evaluated and approved by the University of Iowa Institutional Animal Care and Use Committee (approval number 3091097). After arrival, the animals were acclimated for 7 days. The animals were housed in a light and temperature-controlled environment with ad libitum access to food and water during quarantine and throughout the study. Timed pregnancy was achieved by harem mating. , Briefly, one male and two female rats were placed together in the evening and checked for vaginal plug the following day. If vaginal plug was present, the male was removed from the breeding cage, and the gestation day 0 (GD 0), 0-day post coitum was assigned. Pregnancies were confirmed by ultrasound scan at GD 9. The dams were exposed at GD 11 (±1 day) to capture the period of early organogenesis and hormonal function, which falls within week 3 of human embryonic development. ,− On the day of the experiment, pregnant rats were intratracheally administered an average of 40 μg (range, 35–45 μg) of [^14C]-PCB52 in 100 μL of exposure solution. Although the dose used in this study exceeded the tolerable daily intake (TDI) of PCBs for healthy individuals, which is 1.6 μg per day for an individual weighing 80 kg, the use of higher acute doses has been established in toxicological studies intended for risk assessment. The intratracheal instillation method was chosen for administering [^14C]-PCB52 to represent inhalation exposures, capture exhaled concentration, and efficiently utilize the limited availability of the cost-intensive radiolabeled PCB52. , Although inhalation exposure would better represent real-world exposures to airborne LC-PCBs, it would not allow us to accurately measure the amount of PCB52 exhaled into the air after exposure and is experimentally infeasible. […] All intratracheal instillations were done under light anesthesia, achieved using a 4% isoflurane concentration via a Fortec vaporizer (Cyprane, Keighley, UK). The animals recovered from anesthesia within 1 min. Subsequently, the animals were housed within a cylindrical glass chamber measuring 2 L in volume, equipped with glass drainage mechanisms to facilitate urine collection and a metallic screen to segregate urine from feces (as in Figure S1). Air was drawn from the chamber at 6.0 L/min through a cartridge containing the XAD-2 polymeric resin to capture any exhaled [^14C]-PCB52. For periods longer than 24 h postexposure, exposed dams were placed in a metabolic cage, which was fitted with a cartridge containing XAD-2 to capture exhaled [^14C]-PCB52 as in other end points.
Maternal blood, urine, and feces samples were collected immediately before and at 0.21, 1.67, 12, 24, 48, and 96 h after lung dosing. The exposed dams were euthanized using 4% isoflurane, followed by cervical dislocation and exsanguination via a cardiac puncture. Euthanasia was consistently performed during the light cycle. Dams’ fur was wiped and analyzed for radioactivity. Using the retro-orbital blood collection method, 0.5–1.5 mL ([…] of an exposed pregnant rat’s body weight) of blood sample was collected from each of the dams until the individual dams were necropsied for whole-body tissue harvesting. At the end of the exposure period, the chamber’s interior walls were rinsed separately with water and acetone/hexane (25 – 45 mL) and wiped to measure residues. From the collected whole blood samples, 100 μL were aliquoted into three vials each, and the remaining blood was allowed to clot at room temperature before being centrifuged to yield serum. The placentas, developing fetuses, and whole-body tissue samples were harvested immediately before exposure and at 0.21, 1.67, 12, 24, and 96 h postexposure. […]

[1] = AF (amniotic fluid)/MS (maternal serum)
[2] = Adipose tissue, 0.21 h post-exposure
[3] = Adipose tissue, 1.67 h post-exposure
[4] = Adipose tissue, 12 h post-exposure
[5] = Brown adipose, 0.21 h post-exposure
[6] = Brown adipose, 1.67 h post-exposure
[7] = Brown adipose, 12 h post-exposure
[8] = Brown adipose, 24 h post-exposure
[9] = Brown adipose, 96 h post-exposure
[10] = Esophagus, 0.21 h post-exposure
[11] = Esophagus, 1.67 h post-exposure
[12] = Mammary glands, 0.21 h post-exposure
[13] = Mammary glands, 1.67 h post-exposure
[14] = Mammary glands, 12 h post-exposure
[15] = Mammary glands, 24 h post-exposure
[16] = Mammary glands, 96 h post-exposure
[17] = Matter in duodenum, 0.21 h post-exposure
[18] = Matter in duodenum, 1.67 h post-exposure
[19] = Matter in duodenum, 12 h post-exposure
[20] = Matter in duodenum, 24 h post-exposure
[21] = Matter in duodenum, 96 h post-exposure
[22] = Matter in intestine, 0.21 h post-exposure
[23] = Matter in intestine, 1.67 h post-exposure
[24] = Matter in intestine, 12 h post-exposure
[25] = Matter in intestine, 24 h post-exposure
[26] = Matter in intestine, 96 h post-exposure
[27] = Matter in stomach, 0.21 h post-exposure
[28] = Matter in stomach, 1.67 h post-exposure
[29] = Matter in stomach, 12 h post-exposure
[30] = Matter in stomach, 24 h post-exposure
[31] = Matter in stomach, 96 h post-exposure

Clc1ccc(Cl)c(-c2cc(Cl)ccc2Cl)c1 [PCB52, 2,2′,5,5′-Tetrachlorobiphenyl]
AUC0‑∞ ratio [1]: 0.050
AUC0–96h ratio [1]: 0.053
C max ratio [1]: 0.043
AUC0–96h ratio (AF (amniotic fluid)/brain): 0.079
C max ratio (AF (amniotic fluid)/brain): 0.071
AUC_%Extrap (Adipose tissue): 42.32%
Terminal elimination half-life (t1/2) (Adipose tissue): 72.85 h
Conc. per mg wet tissue [2]: 8.78 dpm/mg
Percent tissue distribution [2]: 10.92%
Conc. per mg wet tissue [3]: 19.77 dpm/mg
Percent tissue distribution [3]: 33.81%
Conc. per mg wet tissue [4]: 27.29 dpm/mg
Percent tissue distribution [4]: 26.32%
Percent tissue distribution (Adipose tissue, 24 h post-exposure): 28.25%
AUC_%Extrap (Adrenal gland): 74.40%
Terminal elimination half-life (t1/2) (Adrenal gland): 253.59 h
AUC_%Extrap (Bladder): 40.50%
Terminal elimination half-life (t1/2) (Bladder): 57.81 h
Conc. per mg wet tissue (Brain, 0.21 h post-exposure): 1.44 dpm/mg
Percent tissue distribution (Brain, 0.21 h post-exposure): 0.79%
Conc. per mg wet tissue (Brain, 1.67 h post-exposure): 4.90 dpm/mg
Percent tissue distribution (Brain, 1.67 h post-exposure): 0.52%
Conc. per mg wet tissue (Brain, 12 h post-exposure): 0.67 dpm/mg
Percent tissue distribution (Brain, 12 h post-exposure): 0.08%
Conc. per mg wet tissue (Brain, 24 h post-exposure): 0.64 dpm/mg
Percent tissue distribution (Brain, 24 h post-exposure): 0.07%
Conc. per mg wet tissue (Brain, 96 h post-exposure): 0.67 dpm/mg
Percent tissue distribution (Brain, 96 h post-exposure): 0.10%
Conc. per mg wet tissue (Bronchi, 0.21 h post-exposure): 81.91 dpm/mg
Percent tissue distribution (Bronchi, 0.21 h post-exposure): 0.66%
Conc. per mg wet tissue (Bronchi, 1.67 h post-exposure): 33.51 dpm/mg
Percent tissue distribution (Bronchi, 1.67 h post-exposure): 0.20%
Conc. per mg wet tissue (Bronchi, 12 h post-exposure): 20.05 dpm/mg
Percent tissue distribution (Bronchi, 12 h post-exposure): 0.10%
Conc. per mg wet tissue (Bronchi, 24 h post-exposure): 18.87 dpm/mg
Percent tissue distribution (Bronchi, 24 h post-exposure): 0.08%
Conc. per mg wet tissue (Bronchi, 96 h post-exposure): 1.44 dpm/mg
Percent tissue distribution (Bronchi, 96 h post-exposure): 0.01%
Conc. per mg wet tissue [5]: 40.87 dpm/mg
Percent tissue distribution [5]: 0.21%
Conc. per mg wet tissue [6]: 120.53 dpm/mg
Percent tissue distribution [6]: 0.87%
Conc. per mg wet tissue [7]: 27.78 dpm/mg
Percent tissue distribution [7]: 0.00%
Conc. per mg wet tissue [8]: 23.09 dpm/mg
Percent tissue distribution [8]: 0.18%
Conc. per mg wet tissue [9]: 4.17 dpm/mg
Percent tissue distribution [9]: 0.00%
AUC_%Extrap (Colon tissue): 22.17%
Terminal elimination half-life (t1/2) (Colon tissue): 40.46 h
Conc. per mg wet tissue (Colon, 0.21 h post-exposure): 9.24 dpm/mg
Percent tissue distribution (Colon, 0.21 h post-exposure): 0.35%
Conc. per mg wet tissue (Colon, 1.67 h post-exposure): 5.24 dpm/mg
Percent tissue distribution (Colon, 1.67 h post-exposure): 0.28%
Conc. per mg wet tissue (Colon, 12 h post-exposure): 5.56 dpm/mg
Percent tissue distribution (Colon, 12 h post-exposure): 0.41%
Conc. per mg wet tissue (Colon, 24 h post-exposure): 9.18 dpm/mg
Percent tissue distribution (Colon, 24 h post-exposure): 0.51%
Conc. per mg wet tissue (Colon, 96 h post-exposure): 1.87 dpm/mg
Percent tissue distribution (Colon, 96 h post-exposure): 0.16%
AUC_%Extrap (Duodenum): 14.10%
Terminal elimination half-life (t1/2) (Duodenum): 34.84 h
Tmax (Duodenum): ≤ 0.21 h
Conc. per mg wet tissue (Duodenum, 0.21 h post-exposure): 21.37 dpm/mg
Percent tissue distribution (Duodenum, 0.21 h post-exposure): 0.71%
Conc. per mg wet tissue (Duodenum, 1.67 h post-exposure): 8.50 dpm/mg
Percent tissue distribution (Duodenum, 1.67 h post-exposure): 0.25%
Conc. per mg wet tissue (Duodenum, 12 h post-exposure): 3.28 dpm/mg
Percent tissue distribution (Duodenum, 12 h post-exposure): 0.12%
Conc. per mg wet tissue (Duodenum, 24 h post-exposure): 4.69 dpm/mg
Percent tissue distribution (Duodenum, 24 h post-exposure): 0.17%
Conc. per mg wet tissue (Duodenum, 96 h post-exposure): 0.83 dpm/mg
Percent tissue distribution (Duodenum, 96 h post-exposure): 0.05%
AUC_%Extrap (Esophagus): 11.71%
Terminal elimination half-life (t1/2) (Esophagus): 46.31 h
Conc. per mg wet tissue [10]: 72.35 dpm/mg
Percent tissue distribution [10]: 0.51%
Conc. per mg wet tissue [11]: 5.67 dpm/mg
Percent tissue distribution [11]: 0.06%
Conc. per mg wet tissue (Esophagus, 12 h post-exposure): 1.09 dpm/mg
Percent tissue distribution (Esophagus, 12 h post-exposure): 0.01%
Conc. per mg wet tissue (Esophagus, 24 h post-exposure): 0.76 dpm/mg
Percent tissue distribution (Esophagus, 24 h post-exposure): 0.01%
Conc. per mg wet tissue (Esophagus, 96 h post-exposure): 0.25 dpm/mg
Percent tissue distribution (Esophagus, 96 h post-exposure): 0.003%
AUC_%Extrap (Fetus): 9.23%
Terminal elimination half-life (t1/2) (Fetus): 34.78 h
maternal serum exposure ratio (Fetus): 0.27
AUC_%Extrap (Heart): 6.21%
Terminal elimination half-life (t1/2) (Heart): 26.21 h
Conc. per mg wet tissue (Heart, 96 h post-exposure): 0.61 dpm/mg
AUC_%Extrap (Kidney): 13.09%
Terminal elimination half-life (t1/2) (Kidney): 35.41 h
AUC_%Extrap (Liver): 14.37%
Terminal elimination half-life (t1/2) (Liver): 42.13 h
Conc. per mg wet tissue (Liver, 0.21 h post-exposure): 55.77 dpm/mg
Percent tissue distribution (Liver, 0.21 h post-exposure): 17.36%
Conc. per mg wet tissue (Liver, 1.67 h post-exposure): 23.78 dpm/mg
Percent tissue distribution (Liver, 1.67 h post-exposure): 6.58%
Conc. per mg wet tissue (Liver, 12 h post-exposure): 11.09 dpm/mg
Percent tissue distribution (Liver, 12 h post-exposure): 1.88%
Conc. per mg wet tissue (Liver, 24 h post-exposure): 8.22 dpm/mg
Percent tissue distribution (Liver, 24 h post-exposure): 1.63%
Conc. per mg wet tissue (Liver, 96 h post-exposure): 1.16 dpm/mg
Percent tissue distribution (Liver, 96 h post-exposure): 0.41%
AUC_%Extrap (Lung): 4.66%
Terminal elimination half-life (t1/2) (Lung): 22.05 h
AUC_%Extrap (Mammary glands): 15.15%
Terminal elimination half-life (t1/2) (Mammary glands): 34.16 h
Conc. per mg wet tissue [12]: 5.39 dpm/mg
Percent tissue distribution [12]: 0.28%
Conc. per mg wet tissue [13]: 2.46 dpm/mg
Percent tissue distribution [13]: 1.21%
Conc. per mg wet tissue [14]: 0.74 dpm/mg
Percent tissue distribution [14]: 1.18%
Conc. per mg wet tissue [15]: 1.55 dpm/mg
Percent tissue distribution [15]: 0.90%
Conc. per mg wet tissue [16]: 1.67 dpm/mg
Percent tissue distribution [16]: 0.18%
AUC_%Extrap (Matter in Colon): 23.30%
Terminal elimination half-life (t1/2) (Matter in Colon): 40.00 h
AUC_%Extrap (Matter in amp colon): 13.09%
Terminal elimination half-life (t1/2) (Matter in amp colon): 30.46 h
AUC_%Extrap (Matter in duodenum): 26.66%
Terminal elimination half-life (t1/2) (Matter in duodenum): 34.63 h
Conc. per mg wet tissue [17]: 6.81 dpm/mg
Percent tissue distribution [17]: 0.44%
Conc. per mg wet tissue [18]: 51.01 dpm/mg
Percent tissue distribution [18]: 0.57%
Conc. per mg wet tissue [19]: 14.38 dpm/mg
Percent tissue distribution [19]: 0.16%
Conc. per mg wet tissue [20]: 16.72 dpm/mg
Percent tissue distribution [20]: 0.19%
Conc. per mg wet tissue [21]: 0.68 dpm/mg
Percent tissue distribution [21]: 0.33%
AUC_%Extrap (Matter in intestine): 2.18%
Terminal elimination half-life (t1/2) (Matter in intestine): 17.41 h
Conc. per mg wet tissue [22]: 10.76 dpm/mg
Percent tissue distribution [22]: 0.70%
Conc. per mg wet tissue [23]: 1.07 dpm/mg
Percent tissue distribution [23]: 4.97%
Conc. per mg wet tissue [24]: 0.75 dpm/mg
Percent tissue distribution [24]: 1.53%
Conc. per mg wet tissue [25]: 13.86 dpm/mg
Percent tissue distribution [25]: 2.58%
Conc. per mg wet tissue [26]: 0.41 dpm/mg
Percent tissue distribution [26]: 0.02%
AUC_%Extrap (Matter in stomach): 4.07%
Terminal elimination half-life (t1/2) (Matter in stomach): 16.50 h
Conc. per mg wet tissue [27]: 28.20 dpm/mg
Percent tissue distribution [27]: 0.47%
Conc. per mg wet tissue [28]: 5.71 dpm/mg
Percent tissue distribution [28]: 0.06%
Conc. per mg wet tissue [29]: 1.71 dpm/mg
Percent tissue distribution [29]: 0.09%
Conc. per mg wet tissue [30]: 1.57 dpm/mg
Percent tissue distribution [30]: 1.52%
Conc. per mg wet tissue [31]: 0.18 dpm/mg
Percent tissue distribution [31]: 0.04%
AUC_%Extrap (Muscle): 96.68%
Terminal elimination half-life (t1/2) (Muscle): 1231.42 h
Conc. per mg wet tissue (Muscle, 0.21 h post-exposure): 1.58 dpm/mg
Percent tissue distribution (Muscle, 0.21 h post-exposure): 28.65%
Conc. per mg wet tissue (Muscle, 96 h post-exposure): 1.58 dpm/mg
AUC_%Extrap (Ovary): 25.93%
Terminal elimination half-life (t1/2) (Ovary): 46.53 h
Conc. per mg wet tissue (Ovary, 0.21 h post-exposure): 19.85 dpm/mg
